Source: US6365550B1, “Flufenacet-based herbicidal compositions” (Bayer Aktiengesellschaft, priority 1999, dated 2002)

Key:
Test in all cases: Post-emergence test/greenhouse
Type in all cases: in vivo
Conditions in all cases: scored after three weeks vs untreated control
Alopercurus myosuroides = system: Alopercurus myosuroides
Experimental: (§1) Commercial formulations of the active compounds involved were used. The active compound concentrations required for the experiments were prepared by dilution with water.
(§2) Test plants which have a height of 5 to 15 cm are sprayed with the active compound preparation in such a way that the amounts of active compound desired in each case are applied per unit area. The concentration of the spray mixture is chosen in such a way that the amounts of active compound desired in each case are applied in 500 l water/ha.
(§3) After three weeks, the degree of damage to the plants is scored in % damage in comparison with the development of the untreated control.
(§4) The figures denote the following:
(§5) 0%=no action (like untreated control)

Apera spica-venti = system: Apera spica-venti
Experimental: as §1, §2, §3, §4, §5

Chenopodium album = system: Chenopodium album
Experimental: as §1, §2, §3, §4, §5

Echinochloa crus-galli = system: Echinochloa crus-galli
Experimental: as §1, §2, §3, §4, §5

Row | SMILES | % damage Alopercurus myosuroides (Alopercurus myosuroides; application rate 60 g a.i./ha) [%] | % damage Apera spica-venti (Apera spica-venti; application rate 60 g a.i./ha) [%] | % damage Chenopodium album (Chenopodium album; application rate 60 g a.i./ha) [%] | % damage Echinochloa crus-galli (Echinochloa crus-galli; application rate 60 g a.i./ha) [%] | % damage Alopercurus myosuroides (Alopercurus myosuroides; application rate 30 g a.i./ha) [%] | % damage Apera spica-venti (Apera spica-venti; application rate 30 g a.i./ha) [%] | % damage Chenopodium album (Chenopodium album; application rate 30 g a.i./ha) [%] | % damage Echinochloa crus-galli (Echinochloa crus-galli; application rate 30 g a.i./ha) [%]
1 | CC(C)N(C(=O)COc1nnc(C(F)(F)F)s1)c1ccc(F)cc1 [(I), N-(4fluoro-phenyl)-N-(i-propyl)-2-(5-trifluoromethyl-1,3,4-thiadiazol-2-yl-oxy)-acetamide] | 60 | 60 | 0 | 60 | – | – | – | –
2 | CC(C)N.O=C(O)CNCP(=O)(O)O [(II-1), N-phosphonomethyl-glycine i-propyl-ammonium salt] | – | – | – | – | 0 | 0 | 0 | 0
